{
  "source": "patent US12448605B2",
  "about": "“Encapsulation and cardiac differentiation of hiPSCs in 3D PEG-fibrinogen hydrogels” (Auburn University, priority 2013, dated 2025)",
  "test_system": "spontaneously contracting 3D cultured CMs",
  "assay": "Calcium transient and spontaneous beating rate of dissociated, un-paced CMs in response to isoproterenol",
  "assay_type": "cell-based, human",
  "method": "To immobilize cells for proper calcium transient acquisition, glass coverslips (21 mm, No. 1, Fisher Scientific) were coated with PDMS using a WS-400-6NPP spin coater (Laurell Technologies Corporation). Briefly, SLYGARD 184 silicone elastomer curing agent was mixed with SLYGARD 184 elastomer base (Dow Corning Corporation) at a ratio of 1:10, applied on the glass coverslips and evenly spin coated to obtain PDMS coated coverslips. These were dried at 60° C. for several hours, sterilized using 70% ethanol, and further dried under sterile conditions for at least 24 h. In order for successful single CM attachment, 1× fibronectin in ice cold ultrapure water was applied on PDMS coated coverslips and incubated for at least one hour at room temperature.\nDay 14 2D monolayers and 3D tissues were dissociated using 0.25% trypsin (EDTA) at 37° C. for 5 and 8 min, respectively. Cells were singularized by pipetting, added to RPMI20 media49, and centrifuged for 5 min at 200 g. Singularized cells were resuspended in RPMI20+5 μM ROCK inhibitor and transferred onto fibronectin coated PDMS glass coverslips. Cells were incubated for 48 h to ensure uniform cell attachment. Media was then switched to RPMI/B27 and cells maintained for 3 to 5 days. CM calcium transient recordings were obtained using an IonOptix Myocyte Calcium and Contractility Recording System. Samples were incubated in 5 μM Fura-2AM dye (Molecular Probes) in 37° C. warm Tyrode's solution (1.8 mM CaCl2, 5 mM glucose, 5 mM HEPES, 1 mM MgCl2, 5.4 mM KCl, 135 mM NaCl, and 0.33 mM NaH2PO4, pH 7.4) for 30 mM CMs were paced at frequencies from 0.5 to 2.0 Hz (0.5 Hz increments) and stimulated at 30 V. Calcium transient duration at 50% and 80% time to baseline was recorded. In addition to responses to outside electrical stimuli, response to 0.5 μM isoproterenol was studied on un-paced CMs.",
  "key": {"[1]": {"details": "0.5 μM isoproterenol, spontaneously contracting 3D cultured CMs, vs pre-isoproterenol, n=3, P<0.05"}},
  "data": [
    {"smiles": "CC(C)NCC(O)c1ccc(O)c(O)c1", "note": "(stereo not shown) [isoproterenol]", "values": [
      {"measurement": "calcium transient time to baseline 50%", "setting": "[1]", "result": "significantly shortened"},
      {"measurement": "calcium transient time to baseline 80%", "setting": "[1]", "result": "significantly shortened"},
      {"measurement": "spontaneous beating rate (post isoproterenol)", "setting": "0.5 μM isoproterenol, un-paced day 14 3D cultured CMs, pre-isoproterenol 33 beats per min", "result": 60, "unit": "beats per min"},
      {"measurement": "spontaneous beating rate (change in words)", "setting": "spontaneously contracting 3D cultured CMs, response to isoproterenol", "result": "increased"}
    ]}
  ]
}
